Test: gradient 5% acetonitrile 3 min, to 50% in 2 min, to 85% in 15 min, held 3 min, 100 µL/min
Settings: column: Zorbax Extend-C18 2.1 x 50 mm; eluents: water / acetonitrile, 0.1% formic acid
Summary of the method: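 A Zorbax Extend-C18 column (2.1 × 50 mm, 1.8 μm) run at 100 μL/min with water and acetonitrile, both containing 0.1% formic acid, separated mixtures of ~100 pure standards. The HPLC was coupled to a quadrupole time-of-flight mass spectrometer operated in positive and negative ionization mode, with dead and dwell volumes of 40 μL and 900 μL. Each retention time was taken from a computationally picked adduct peak that was then manually inspected.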

Compound	RP-LC retention time
O=C(Cn1nc(N2CCSCC2)c2ccccc2c1=O)Nc1ccc(Br)cc1	1000 s
COCCn1nc(N2CCCC(NS(=O)(=O)c3c(C)nn(C)c3C)C2)ccc1=O (centres undefined)	622 s
Cc1ccc2c(Sc3ccc(Cl)cc3)c(C(=O)N3CCN(c4ccccn4)CC3)[nH]c2c1	894 s
CC(C)(C)NS(=O)(=O)c1cncc(-c2cc(F)c3nc(N)nn3c2)c1	750 s
Cc1ccc(CSc2nnc(-c3ccccc3Cl)o2)cc1	1190 s
COc1cc(NS(=O)(=O)c2ccc(-c3c(C)noc3C)cc2)cc(OC)c1	889 s
O=c1ccc(-c2nc(-c3ccncc3)no2)nn1Cc1cccc(Br)c1	919 s
COc1ccc(-c2nc3ncccn3c2Nc2cccc(C(F)(F)F)c2)cc1	903 s
Cn1c(=O)c(F)c(Nc2ccc(I)cc2F)c2c(=O)n(C[C@@H](O)CO)cnc21	756 s
OC(CN1CCN(c2ccccc2)CC1)c1ccc2c(c1)OCO2 (centres undefined)	630 s
CCOc1ccc(C2C3=C(CCCC3=O)Nc3c2c(=O)n(C)c(=O)n3C)cc1OC (centres undefined)	806 s
O=C(OCc1cccnc1)c1cn(-c2cccc(F)c2)c(=O)c2ccccc12	753 s
O=C(Cc1ccccc1Cl)NCC(O)c1ccc(C(F)(F)F)cc1 (centres undefined)	806 s
Cc1noc(-c2nn(C)c3c2CN(C(=O)COc2ccc(Cl)cc2)CC3)n1	791 s
Cc1ccc(-n2nc3c(=O)n(CCCC(=O)N4CCCC4)nc(C)c3c2C)cc1	748 s
CC(CNC(=O)c1cc2sccc2n1C)c1ccccc1 (centres undefined)	983 s
Cc1ccc(F)c(NS(=O)(=O)c2cn(CC(C)C)c3ncccc23)c1	932 s
CCOc1ccc(-c2cn3ccn(-c4cccc(Cl)c4)c(=O)c3n2)cc1	899 s
NS(=O)(=O)c1ccc(NS(=O)(=O)c2cc(-c3ccno3)cs2)cc1	710 s

Compound	RP-LC retention time
Cc1ccc(-c2noc(Cn3ccn(-c4ccc(Cl)cc4)c(=O)c3=O)n2)cc1	918 s
O=c1ccc(-c2ccc(S(=O)(=O)N3CCN(c4ccccn4)CC3)s2)n[nH]1	595 s
CCc1ccc(C2=Nc3cccnc3N(CC(=O)Nc3ccc(C(C)=O)cc3)C(=O)C2)cc1	972 s
CCc1ccc(NC(=O)C2CCc3nc(N(CC)CC)ncc3C2)cc1 (centres undefined)	799 s
COc1ccc(-c2nc(C)cc3nn(CC(=O)Nc4ccc(C)c(C)c4)c(=O)n23)cc1	895 s
Cc1ccc(CNC(=O)Cn2c(C)cc(-c3nnc(-c4ccc(F)cc4)o3)c2C)cc1	982 s
Cc1ccc(-c2noc(-c3nc(Cc4cccc(F)c4)no3)n2)cc1	1180 s
COc1ccc(-c2nc3ccccn3c2Nc2ccc3c(c2)OCO3)cc1	633 s
CCCCn1cc(S(=O)(=O)Nc2ccc(Cl)cc2)c2cccnc21	1020 s
CCc1nnc(-c2cc(S(=O)(=O)NCCCc3ccccc3)cn2C)o1	864 s
CCc1nnc2ccc(-c3noc(-c4ccc(C)c(C)c4)n3)cn12	1140 s
Cc1c(-c2noc(-c3ccc(F)cc3)n2)nnn1Cc1ccccc1	1060 s
COCc1c(C(=O)O)nnn1-c1cc(C)ccc1F	708 s
CCOCCCNC(=O)c1nc(Nc2ccccc2)c2ccccc2n1	1130 s
Cc1nn(-c2ccccc2)c(C)c1S(=O)(=O)Nc1ccc(S(N)(=O)=O)cc1	731 s
Cc1sc(NC(=O)c2ccc3c(c2)OCO3)nc1-c1ccc2c(c1)N(C)C(=O)CO2	823 s
Cc1ccc(N(C)C(=O)Cn2ccc3c(=O)n(C)c(=O)n(C)c32)cc1C	693 s
Cc1nnc(N2CCCC(C(=O)NCCc3c[nH]c4ccccc34)C2)c2nn(-c3ccccc3)c(C)c12 (centres undefined)	706 s
Cc1ccc(C)c(C(=O)Nc2ccc3c(c2)Sc2ncccc2C(=O)N3C(C)C)c1	922 s

Continued, values first:

RP-LC retention time	Compound
755 s	COC(=O)c1cc(OCC(=O)Nc2ccc3c(c2)OCCO3)c2ccccc2n1
637 s	COc1ccc(NC(=O)C2CCCN(c3cc(=O)n(C)c(=O)n3C)C2)cc1OC (centres undefined)
1030 s	CCN1C(=O)C2(CCN(S(=O)(=O)c3cc(F)ccc3OC)CC2)c2ccccc21
697 s	O=C(NCCc1ccco1)C1CCN(c2nc3cccnc3s2)CC1
795 s	CCn1c(C(=O)N2CCC(C(=O)NCc3cccc(OC)c3)CC2)cc2occc21
849 s	COc1ccc(C(=O)N2CCN(c3nc(-c4ccccc4)no3)CC2)cc1OC
1070 s	COc1cccc(N2CCN(C(=O)C3CCN(c4nccnc4Sc4ccccc4)CC3)CC2)c1
1210 s	O=C(Nc1ccc(-c2nc(-c3ccccc3)co2)cc1)C1CCCCC1
640 s	COc1ccc(C2C(C(=O)N3CCN(C)CC3)c3cc(OC)c(OC)cc3C(=O)N2C)cc1 (centres undefined)
1010 s	Cc1ccccc1CNC(=O)C1(C)CCCN(C(=O)Nc2ccccc2Cl)C1 (centres undefined)
842 s	O=C(Cc1ccc(Cl)cc1)N1CCN(S(=O)(=O)c2cc3c4c(c2)CCC(=O)N4CCC3)CC1
617 s	CCc1cccc(Nc2c(C(=O)N3CCOCC3)cnc3nc(C)ccc23)c1
648 s	COCC(=O)NC1CCC12CCN(C(=O)c1ccco1)CC2 (centres undefined)
679 s	COc1ccc(C(=O)Nc2ccc(CC(=O)N3CCOCC3)cc2)c(OC)c1OC
905 s	Cc1nn(-c2ccccc2)c(C)c1S(=O)(=O)N1CCC(C(=O)Nc2ccc3c(c2)OCO3)CC1
1110 s	COc1ccc(N2CCN(c3cc(SCC(=O)Nc4ccccc4Cl)ncn3)CC2)cc1
786 s	O=C(Cn1cc(C(=O)C(=O)N2CCCC2)c2ccccc21)NCc1ccc2c(c1)OCCCO2
669 s	CCc1c(C2CCN(C(=O)c3cc(C)on3)CC2)noc1N
972 s	COCCNC(=O)c1csc(N2CCN(c3ccc(Cl)cc3)CC2)n1
928 s	Cn1cccc1C(=O)C(=O)Nc1cccc2c1CCCC2
618 s	Cn1ncc2c3ccccc3n(CCCC(=O)NCCN3CCCCC3)c2c1=O
604 s	CC(C)NC(=O)N1CCCC(Cn2c(C3CC3)nc3cccnc32)C1 (centres undefined)
544 s	COCC1(O)CCOC2(CCN(Cc3ccccc3F)CC2)C1 (centres undefined)
745 s	O=C(NC1CCCCC1)N1CCN(c2ncccc2-c2nnc(C3CC3)o2)CC1
1020 s	CCSc1nnc(NC(=O)C2(c3cc(-c4cccs4)on3)CC2)s1
721 s	COCC(=O)NC(Cc1ccccc1)c1nnc(N2CCSCC2)o1 (centres undefined)

RP-LC retention time	Compound
868 s	CCCCN1C(=O)c2ccccc2C(C(=O)NCCC(=O)OC)C12CCCCC2 (centres undefined)
813 s	Cc1ccc(-c2coc3cc4oc(=O)c(CC(=O)N5CCC(C(N)=O)CC5)c(C)c4cc23)cc1
593 s	CCN1CCN(C(=O)C2CC(c3ccccc3)=NO2)CC1 (centres undefined)
624 s	O=C1NCC(=O)N2CC3(CCN(C(=O)C4CCCCC4)CC3)CC12 (centres undefined)
767 s	CN(C)S(=O)(=O)N1CCOc2ccc(CCC(=O)NCC3CC3)cc2C1
601 s	O=C(Nc1ccc2nc(N3CCC(N4CCCCC4)CC3)cc(C(=O)O)c2c1)c1cccc(Cl)c1
779 s	O=S(=O)(c1ccc2c(c1)CCC2)N1CCCC1c1noc(CO)n1 (centres undefined)
594 s	Cn1cc(C(=O)NC2CCN(Cc3ccccc3)CC2)c2cccnc21
736 s	CCCNC(=O)C1CCN(Cc2cc3ccccc3n2Cc2ccccc2Cl)CC1
778 s	O=C(NCc1csc(-c2cccs2)n1)C1CCN(C(=O)Cc2ccc(F)cc2)CC1
824 s	COC(=O)c1ccc(NC(=O)NCc2noc3ccccc23)cc1
799 s	CCNC(=O)C1CCN(c2nc3ccc(-c4ccsc4)nc3s2)CC1
852 s	COC(=O)c1ccc(Cn2cnc3nc4c(cc3c2=O)CC(C)CC4)cc1 (centres undefined)
786 s	CC(C)c1ccc(CNC(=O)[C@@]23CCCC[C@H]2N(C)C(=O)CC3)cc1
742 s	Cc1ccc(C(=O)NC2CCN(c3cc(-c4cccs4)[nH]n3)C2)c(C)c1 (centres undefined)
585 s	CN1CCC(NC(=O)c2ccc(-n3cc(CNC(=O)C4CCC4)cn3)cc2)CC1
767 s	COc1ccc(OC)c(NC(=O)c2cn3c(n2)CSCC3)c1
653 s	CCOC(=O)C1=C(CN2CC(C)CC(C)C2)NC(=O)NC1c1ccc(OC)cc1 (centres undefined)
735 s	CCOC(=O)N1CCN(C(=O)c2cc(-c3ccco3)on2)CC1
623 s	CC1CCN(S(=O)(=O)c2ccc(-c3nnc(C(=O)NCCCN4CCN(C)CC4)o3)cc2)CC1
814 s	COc1ccc(-c2cc3n(n2)CCCN(C(=O)NCCc2ccccc2)C3)cc1
741 s	O=c1n(CC2CC2)nc2n1CCN(S(=O)(=O)Cc1ccccc1)CC2
588 s	COc1ccc(OC)c(S(=O)(=O)NCCN2CCN(c3ccccc3F)CC2)c1
682 s	Cc1nc2cc3c(cc2n1CC(=O)NC1CCCc2ccccc21)OCCO3 (centres undefined)
659 s	O=C(N[C@H]1C[C@@H]2C[C@H]1CN2C(=O)c1ccc(Cl)s1)c1cccnc1

From the METLIN SMRT retention time set (Domingo-Almenara et al. 2019)
